± gives the expanded uncertainty stated by the source.
Details: 298.15 K, 101.33 kPa, Liquid; for viscosity: Capillary tube (Ostwald / Ubbelohde) method; for speed of sound: Sing-around technique in a fixed-path interferometer; for mass density: Vibrating tube method

viscosity | speed of sound | mass density | SMILES
2.111 ± 0.12 mPa·s | 1140.6 ± 0.64 m/s | 781.588 ± 0.12 kg/m3 | CC(C)O [propan-2-ol]
1.984 ± 0.12 mPa·s | 1207 ± 0.8 m/s | 800.13 ± 0.14 kg/m3 | CCCO [propan-1-ol]

The next lines start with the molecule.

SMILES | viscosity | speed of sound | mass density
CCCCO [butan-1-ol] | 2.625 ± 0.12 mPa·s | 1240.6 ± 0.71 m/s | 805.986 ± 0.12 kg/m3
CCC(C)O (stereo not given) [butan-2-ol] | 3.075 ± 0.12 mPa·s | 1213.3 ± 0.81 m/s | 802.563 ± 0.14 kg/m3
CCCCOCCO [2-butoxyethan-1-ol] | 2.885 ± 0.12 mPa·s | 1306 ± 0.7 m/s | 896.312 ± 0.083 kg/m3

Reference: the NIST ThermoML archive (doi:10.1016/j.fluid.2013.06.021)
